According to patent publication US10149476B2, “Pesticidal plant extract containing loline derivatives” (GRASSLANZ TECHNOLOGY LTD, priority 2007, dated 2018):
“And” between values parts separate entries of the source, which are not always exact repeats. Equal entries are not always repeated.

What was measured:
[1] = Uptake of pyrrolizidine alkaloids into cabbage plants grown in silica sand; type: in vivo, Cabbage brassica; conditions: cabbage treated with composition of Grind Number 3 watered onto pots
Procedure: Cabbage brassica were tested with the pesticidal composition of Grind Number 3 of Example 1 watered onto the pots in which the trial cabbage plants were grown in silica sand.

[2] = Uptake of pyrrolizidine alkaloids into endophyte free Ryegrass plants after watering composition onto roots; type: in vivo; conditions: leaf sub-sample after 21 days; for Pyrrolizidine Alkaloid Content, Average: average of 5 endophyte free Ryegrass plants, Grinding Number 1 composition watered on roots; for Pyrrolizidine Alkaloid Content: individual endophyte free Ryegrass plants 1-5, 100 ml Grinding Number 1 composition watered on roots every second day
Procedure: (§1) Pesticidal composition from Grinding Number 1 of Example 1 was watered onto the roots of endophyte free Fescue and Ryegrass plants grown in a glasshouse under controlled conditions into silica sand filled pots. Control plants were included in the plant samples and were watered with nil endophyte ground extract containing no pesticidal composition. Trial plants were each watered with 100 ml of each composition every second day with nutrient watered on alternate days. After 21 days, a sub-sample of leaf material was analysed to determine the uptake of pesticidal composition into the plants tested.
(§2) The results shown below in Table 2 for endophyte free Fescue plants and Table 3 for endophyte free Ryegrass plants clearly indicate transfer of the measured pyrrolizidine alkaloid compounds from the composition and into the plants via their root system

[3] = Uptake of pyrrolizidine alkaloids into endophyte free Fescue plants after watering composition onto roots; type: in vivo; conditions: leaf sub-sample after 21 days; for Pyrrolizidine Alkaloid Content, Average: average of 5 endophyte free Fescue plants, Grinding Number 1 composition watered on roots; for Pyrrolizidine Alkaloid Content: individual endophyte free Fescue plants 1-5, 100 ml Grinding Number 1 composition watered on roots every second day
Procedure: as §1, §2

Row | Structure (SMILES) | Pyrrolizidine Alkaloid Content [1] | Pyrrolizidine Alkaloid Content, Average [2] | Pyrrolizidine Alkaloid Content [2] | Pyrrolizidine Alkaloid Content, Average [3] | Pyrrolizidine Alkaloid Content [3]
1 | CC(=O)N(C)[C@@H]1[C@H]2[C@@H]3CCN2C[C@H]1O3 [NAL, N-acetylloline] | 6 mg/kg or ppm | 92 mg/kg or ppm | 40 mg/kg or ppm and 37 mg/kg or ppm and 214 mg/kg or ppm and 87 mg/kg or ppm and 84 mg/kg or ppm | 75 mg/kg or ppm | 56 mg/kg or ppm and 38 mg/kg or ppm and 119 mg/kg or ppm and 69 mg/kg or ppm and 95 mg/kg or ppm
2 | CC(=O)N[C@H]1[C@H]2[C@@H]3CCN2C[C@H]1O3 [NANL, N-acetylnorloline] | 0 mg/kg or ppm | 14 mg/kg or ppm | 0 mg/kg or ppm (3×) and 44 mg/kg or ppm and 27 mg/kg or ppm | 0 mg/kg or ppm | 0 mg/kg or ppm
3 | CN(C=O)C1C2[C@@H]3CCN2C[C@H]1O3 (stereo partly drawn) [NFL, N-formylloline] | 148 mg/kg or ppm | 644 mg/kg or ppm | 352 mg/kg or ppm and 340 mg/kg or ppm and 1152 mg/kg or ppm and 697 mg/kg or ppm and 680 mg/kg or ppm | 479 mg/kg or ppm | 405 mg/kg or ppm and 382 mg/kg or ppm and 648 mg/kg or ppm and 479 mg/kg or ppm and 482 mg/kg or ppm
